Experimental data published in EP0214862A2, “Anti-tumour platinum complexes, their preparation and their use” (priority 1985, dated 1987).

Experiments:
[1] = system: L1210 cells; assay: Anti-tumour activity against L1210 leukemia inoculated intraperitoneally in mice (Experiment 1); assay type: in vivo; settings: L1210, CDF1 mice
Protocol: In the following experiments, the test animals used were 8 to 9 week old female mice of the CDF1 strain, each weighing 20-25 g.
(§1) CDF1 mice were inoculated intraperitoneally with L1210 cells ([…]). […] Each drug was injected intraperitoneally on days 1 and 4 following tumour implantation. The number of mice in each test group was 6.
(§2) The increase in life span (ILS) was calculated as follows: • ILS% = [(St/Su) - 1] x 100 • in which: • St = weighted median number of days survival of treated mice; and • Su = weighted median number of days survival of untreated mice.

[2] = system: cisplatin-resistant L1210/CDDP cells; assay: Anti-tumour activity against cisplatin-resistant L1210/CDDP leukemia in mice (Experiment 2); assay type: in vivo
From the text: (§3) In the following experiments, the test animals used were 8 to 9 week old female mice of the CDF1 strain, each weighing 20-25 g. The standard L1210 leukemia cells were supplied by Dr. T. Yamamoto of the Institute of Medical Science, University of Tokyo, Japan, whilst the cisplatin-resistant L1210 cell line (L1210/CDDP) was supplied by Dr. T. Tashiro of the Cancer Chemotherapy Centre, Japanese Foundation for Cancer Research, Tokyo, Japan.
as §1, §2
The procedures described in Experiment 1 were repeated exactly, except that the tumour cells were cisplatin-resistant L1210/CDDP cells.

[3] = system: cisplatin-resistant L1210 cell line (L1210/CDDP); assay: In vitro sensitivity of the cisplatin-resistant cell line versus parent L1210; assay type: cell-based, mouse; settings: L1210/CDDP relative to the parent L1210 cell line
From the text: as §3

[4] = Dose 5 mg/kg intraperitoneally on days 1 and 4
[5] = Dose 10 mg/kg intraperitoneally on days 1 and 4
[6] = Dose 20 mg/kg intraperitoneally on days 1 and 4
[7] = Dose 40 mg/kg intraperitoneally on days 1 and 4
[8] = Dose 80 mg/kg intraperitoneally on days 1 and 4
[9] = Dose 30 mg/kg intraperitoneally on days 1 and 4, CDF1 mice
[10] = Dose 60 mg/kg intraperitoneally on days 1 and 4, CDF1 mice
[11] = Dose 0.625 mg/kg intraperitoneally on days 1 and 4
[12] = Dose 1.25 mg/kg intraperitoneally on days 1 and 4
[13] = Dose 2.5 mg/kg intraperitoneally on days 1 and 4
[14] = Dose 2.5 mg/kg intraperitoneally on days 1 and 4, CDF1 mice
[15] = Dose 5 mg/kg intraperitoneally on days 1 and 4, CDF1 mice

carboplatin was tested, and the “ILS (Increase in life span)” value [1, 4] was 7%, the “Med.S.T. (Median survival time)” value [1, 4] was 9.0 days and the “Survivors on day 42” value [1, 4] was 0/6. The “Wt. Change (Change in body weight from day 1 to day 7)” value (from here on “Wt. Change”) [1, 4] was “+1.3 g”, the “ILS (Increase in life span)” value [1, 5] was 7% and the “Med.S.T. (Median survival time)” value [1, 5] was 9.0 days. For the same molecule, the “Survivors on day 42” value [1, 5] was 0/6, the “Wt. Change” value [1, 5] was “+2.0 g” and the “ILS (Increase in life span)” value [1, 6] was 7%. The “Med.S.T. (Median survival time)” value [1, 6] was 9.0 days, the “Survivors on day 42” value [1, 6] was 0/6 and the “Wt. Change” value [1, 6] was “+0.8 g”. The “ILS (Increase in life span)” value [1, 7] was 10%, the “Med.S.T. (Median survival time)” value [1, 7] was 9.2 days and the “Survivors on day 42” value [1, 7] was 0/6. For the same molecule, the “Wt. Change” value [1, 7] was “+0.4 g”, the “ILS (Increase in life span)” value [1, 8] was 23% and the “Med.S.T. (Median survival time)” value [1, 8] was 10.3 days. For the same molecule, the “Survivors on day 42” value [1, 8] was 0/6, the “Wt. Change” value [1, 8] was -0.5 g and the 30-day survivors [2, 9] was 0/6. For the same molecule, the “Body weight change from days 1 to 7” value [2, 9] was “+1.2”, the “ILS(%)” value [2, 9] was 9% and the Median survival days [2, 9] was 9.9 days. The 30-day survivors [2, 10] was 0/6, the “Body weight change from days 1 to 7” value [2, 10] was -0.6 and the “ILS(%)” value [2, 10] was 8%. For the same molecule, the Median survival days [2, 10] was 9.8 days.

For `N.N.[Cl][Pt][Cl]` [cisplatin], the “degree of cisplatin resistance in terms of in vitro sensitivity” value [3] was 40 fold, the “ILS (Increase in life span)” value [1, 11] was 8% and the “Med.S.T. (Median survival time)” value [1, 11] was 9.1 days. The “Survivors on day 42” value [1, 11] was 0/6, the “Wt. Change” value [1, 11] was “+1.6 g” and the “ILS (Increase in life span)” value [1, 12] was 15%. The “Med.S.T. (Median survival time)” value [1, 12] was 9.7 days, the “Survivors on day 42” value [1, 12] was 0/6 and the “Wt. Change” value [1, 12] was “+2.5 g”. For the same molecule, the “ILS (Increase in life span)” value [1, 13] was 58%, the “Med.S.T. (Median survival time)” value [1, 13] was 13.3 days and the “Survivors on day 42” value [1, 13] was 0/6. For the same molecule, the “Wt. Change” value [1, 13] was “+1.7 g”, the “ILS (Increase in life span)” value [1, 4] was 364% and the “Med.S.T. (Median survival time)” value [1, 4] was 39.0 days. The “Survivors on day 42” value [1, 4] was 2/6, the “Wt. Change” value [1, 4] was -3.5 g and the “ILS (Increase in life span)” value [1, 5] was 23%. For the same molecule, the “Med.S.T. (Median survival time)” value [1, 5] was 10.3 days, the “Survivors on day 42” value [1, 5] was 0/6 and the “Wt. Change” value [1, 5] was -5.5 g. The 30-day survivors [2, 14] was 0/5, the “Body weight change from days 1 to 7” value [2, 14] was “+1.0” and the “ILS(%)” value [2, 14] was 2%. The Median survival days [2, 14] was 9.3 days, the 30-day survivors [2, 15] was 0/6 and the “Body weight change from days 1 to 7” value [2, 15] was -1.9. For the same molecule, the “ILS(%)” value [2, 15] was 9% and the Median survival days [2, 15] was 9.9 days.

For `C1CCC2[NH][Pt-2]3([NH]C2C1)[O]C1=[N+](CCN1)[Pt-2]1([NH2+]C2CCCCC2[NH2+]1)[OH+]3` (stereo not drawn) [Example 1, Hydroxo(ethyleneurea-N,O)-bis(cis-(trans-(ℓ)-1,2-diaminocyclohexane)platinum (II)] nitrate], the “Wt. Change” value [1, 4] was “+2.6 g”, the “Wt. Change” value [1, 5] was “+2.8 g” and the “Wt. Change” value [1, 6] was “+2.2 g”. For the same molecule, the “Wt. Change” value [1, 7] was “+0.4 g”, the “Wt. Change” value [1, 8] was “+0.2 g” and the “Wt. Change” value ([1]; Dose 160 mg/kg intraperitoneally on days 1 and 4) was -3.0 g. For the same molecule, the “toxic (number of mice)” value ([1]; Dose 240 mg/kg intraperitoneally on days 1 and 4) was “- (2/6, toxic)”, the “toxic (number of mice)” value ([1]; Dose 320 mg/kg intraperitoneally on days 1 and 4) was “- (5/6, toxic)” and the “Body weight change from days 1 to 7” value [2, 15] was “+2.4”. For the same molecule, the “Body weight change from days 1 to 7” value ([2]; Dose 10 mg/kg intraperitoneally on days 1 and 4, CDF1 mice) was “+2.3”, the “Body weight change from days 1 to 7” value ([2]; Dose 20 mg/kg intraperitoneally on days 1 and 4, CDF1 mice) was “+2.2” and the “Body weight change from days 1 to 7” value ([2]; Dose 40 mg/kg intraperitoneally on days 1 and 4, CDF1 mice) was -0.3. The “Body weight change from days 1 to 7” value ([2]; Dose 80 mg/kg intraperitoneally on days 1 and 4, CDF1 mice) was -0.5 and the “Body weight change from days 1 to 7” value ([2]; Dose 160 mg/kg intraperitoneally on days 1 and 4, CDF1 mice) was -1.8.
